From publication PMC6750098, “Mechanism of DNA Lesion Homing and Recognition by the Uvr Nucleotide Excision Repair System” (Research, 2019) come the findings set out here.

The target in experiment [1] is T1, UvrB (Δ594-658, domains 1a-3) ([Bacillus] caldotenax, UniProt P56981, C145S/C211S/T251C/C303S).
T1 construct: residues 1-593 (domain 4 deleted, Δ594-658), all native Cys to Ser, His-tag cleaved with TEV protease, expressed in E. coli BL21(DE3) pLysS, disulfide-crosslinked to duplex DNA
The experiment is described as follows: X-ray crystal structure (UvrB-dsDNA-ADP·Pi). The note with it: crystals grown with 2 mM ATP and 5 mM MgCl2, pH 6.5, 20 °C; protein disulfide-crosslinked to 20-mer dsDNA; ATP binding site; 2.6 Å.

Experiment [2] addresses T1, UvrB (Δ594-658, domains 1a-3). The experiment is described as follows: ATP hydrolysis in crystallo, seen in crystal structure. It is filed as biochemical. The note with it: 2 mM ATP, 5 mM MgCl2, pH 6.5, 20 °C; protein disulfide-crosslinked to 20-mer dsDNA.

T1 sequence (P56981 1-593 C145S/C211S/T251C/C303S): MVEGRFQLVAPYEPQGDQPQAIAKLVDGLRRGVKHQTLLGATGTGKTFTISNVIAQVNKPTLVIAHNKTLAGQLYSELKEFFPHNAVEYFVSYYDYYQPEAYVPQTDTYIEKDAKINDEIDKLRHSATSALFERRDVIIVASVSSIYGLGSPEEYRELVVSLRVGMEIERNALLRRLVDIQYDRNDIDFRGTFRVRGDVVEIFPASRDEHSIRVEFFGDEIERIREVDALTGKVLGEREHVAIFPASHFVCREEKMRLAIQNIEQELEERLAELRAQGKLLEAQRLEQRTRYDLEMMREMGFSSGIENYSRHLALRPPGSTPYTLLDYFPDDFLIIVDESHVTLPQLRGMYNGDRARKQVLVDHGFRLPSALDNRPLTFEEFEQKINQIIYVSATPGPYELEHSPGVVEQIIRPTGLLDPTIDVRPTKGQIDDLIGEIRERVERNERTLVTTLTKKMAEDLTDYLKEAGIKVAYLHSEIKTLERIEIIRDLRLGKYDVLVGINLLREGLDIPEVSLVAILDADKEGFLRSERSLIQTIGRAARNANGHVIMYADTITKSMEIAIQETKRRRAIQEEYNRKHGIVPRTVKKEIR

On to `Nc1ncnc2c1ncn2[C@@H]1O[C@H](COP(=O)(O)OP(=O)(O)O)[C@@H](O)[C@H]1O` [ADP], for which the “X-ray crystal structure (UvrB-dsDNA-ADP.Pi)” value in experiment [1] is “the electron density corresponds to ADP plus inorganic phosphate”.
Turning to `Nc1ncnc2c1ncn2[C@@H]1O[C@H](COP(=O)(O)OP(=O)(O)OP(=O)(O)O)[C@@H](O)[C@H]1O` [ATP], in experiment [2], the “ATP hydrolysis in crystallo, seen in crystal structure” value is “hence we conclude that the ATPase site retains activity in our crosslinked complex”.
